Calls of active or inactive are those of the source. The calls are words filed in the database; no cut-off is given here. A value given as a limit tells only on which side of the number the result lay.

Test [1] has as its target T1, Beta sliding clamp (Escherichia coli (strain K12), UniProt P0A988). Nature of the test: Inhibition of Escherichia coli DNA sliding clamp protein using N-fluorescein (FAM)-QLDLF-OH tracer by fluorescence polarization assay.
Test [2] addresses T1, Beta sliding clamp. Nature of the test: Binding affinity to Escherichia coli DNA sliding clamp protein at 298K by isothermal titration calorimetry. For orientation: In ITC the heat of successive injections is recorded.
The target of test [3] is Beta sliding clamp (Escherichia coli (strain K12)) (UniProt P0A988). Nature of the test: Inhibition of Escherichia coli DNA sliding clamp protein assessed as reduction in DNA replication at 31 uM in presence of circular ssDNA, RNA primer template, SSB, Pol3-alpha subunit, reconstituted gamma3delta-delta' clamp loader complex by SYBR gold dye based agarose gel electrophoresis method.

Test [4] has the same target. Nature of the test: Inhibition of Escherichia coli DNA sliding clamp protein assessed as reduction in DNA replication at >125 uM in presence of circular ssDNA, RNA primer template, SSB, Pol3-alpha subunit, reconstituted gamma3delta-delta' clamp loader complex by SYBR gold dye based agarose gel electrophoresis method.

Chain of Beta sliding clamp (Escherichia coli (strain K12)) (P0A988 whole entry): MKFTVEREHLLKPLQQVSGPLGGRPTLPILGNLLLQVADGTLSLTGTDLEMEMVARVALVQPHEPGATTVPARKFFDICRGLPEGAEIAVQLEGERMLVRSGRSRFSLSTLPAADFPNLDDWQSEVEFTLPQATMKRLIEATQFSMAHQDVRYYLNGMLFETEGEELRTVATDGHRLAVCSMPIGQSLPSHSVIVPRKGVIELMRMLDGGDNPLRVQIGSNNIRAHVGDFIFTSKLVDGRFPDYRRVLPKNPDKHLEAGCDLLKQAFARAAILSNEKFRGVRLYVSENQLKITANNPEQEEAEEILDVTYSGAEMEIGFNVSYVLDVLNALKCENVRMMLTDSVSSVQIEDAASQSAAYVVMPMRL
T1 sequence (P0A988 whole entry): as above

For the compound `O=C(O)[C@H]1CCc2c([nH]c3ccc(Br)cc23)C1`, in test [1], the IC50 was determined as 328 µM and the Ki was 182 µM.
In the same order, the values of `CC(C)(C)OC(=O)N1CCC(CNC(=O)Cn2c3c(c4cc(Br)ccc42)CC[C@@H](C(=O)O)C3)CC1` are 150 µM and 83 µM.
Taken in the same sequence, the figures for `CC(C)(C)OC(=O)NCCCC[C@@H](NC(=O)Cn1c2c(c3cc(Br)ccc31)CC[C@@H](C(=O)O)C2)C(=O)O` were 115 µM and 64 µM.
In the same order, the values of `NC(=O)CNC(=O)Cn1c2c(c3cc(Br)ccc31)CC[C@@H](C(=O)O)C2` are 171 µM and 95 µM.
In test [1], `O=C(Cn1c2c(c3cc(Br)ccc31)CC[C@@H](C(=O)O)C2)N[C@@H](Cc1ccccc1)C(=O)O` showed an IC50 of 27 µM and a Ki of 15 µM. Binding in test [2] was characterised by a dissociation constant (Kd) of 9 µM. For the same compound, the inhibition result in test [3] is “Active”.
Turning to `O=C(O)CNC(=O)Cn1c2c(c3cc(Cl)ccc31)CC[C@@H](C(=O)O)C2`, in test [1], the IC50 turned out to be 85 µM and the Ki was found to be 47 µM. The Kd in test [2] amounted to 24 µM.
In test [1], `NC(=O)C1CCc2c([nH]c3ccc(Cl)cc23)C1` (racemic) showed an IC50 above 1000 µM.
`O=C(O)[C@@H]1CCc2c([nH]c3ccc(I)cc23)C1`: in test [1], the IC50 was 175 µM and the Ki was found to be 97 µM.
As for `NC(=O)Cn1c2c(c3cc(Cl)ccc31)CC[C@H](C(=O)O)C2`, in test [1], the IC50 stood at 888 µM and the affinity, expressed as Ki, was 493 µM.
Taken in the same sequence, the figures for `O=C(O)C1CCc2c([nH]c3ccc(Cl)cc23)C1` (racemic) were 299 µM and 166 µM.
Taken in the same sequence, the figures for `O=C(Cn1c2c(c3cc(Br)ccc31)CC[C@@H](C(=O)O)C2)NCC1CCNCC1` were 208 µM and 116 µM.
Taken in the same sequence, the figures for `NC(=O)c1ccc(CNC(=O)Cn2c3c(c4cc(Br)ccc42)CC[C@@H](C(=O)O)C3)cc1` were 64 µM and 36 µM.
In test [1], `NC(=O)Cc1ccc(NC(=O)Cn2c3c(c4cc(Cl)ccc42)CC[C@@H](C(=O)O)C3)cc1` displayed an IC50 of 362 µM and a Ki of 201 µM.
In test [1], `NC(=O)Cn1c2c(c3cc(Cl)ccc31)CC[C@@H](C(=O)O)C2` came in with an IC50 of 368 µM and a Ki of 204 µM. In test [4], the inhibition result was “Active”.
In the case of `CC(C)C[C@H](NC(=O)Cn1c2c(c3cc(Br)ccc31)CC[C@@H](C(=O)O)C2)C(=O)O`, in test [1], 48 µM corresponded to half-maximal inhibition (IC50) and the affinity corresponds to a Ki of 27 µM.
In test [1], `OCC1CCc2c([nH]c3ccc(Cl)cc23)C1` (racemic) registered an IC50 above 1000 µM.
As for `O=C(O)CNC(=O)Cn1c2c(c3cc(Br)ccc31)CC[C@@H](C(=O)O)C2`, in test [1], the IC50 was 20 µM and the Ki was found to be 11 µM. In test [2], this compound yielded a Kd of 14 µM. Also, the inhibition result in test [3] was “Active”.
As to `O=C(O)[C@@H]1CCc2c([nH]c3ccc(Br)cc23)C1`, in test [1], it took 157 µM to reach half-maximal inhibition (IC50) and the Ki is 87 µM. The inhibition result in test [4] is “Active”.
In the same order, the values of `O=C(O)[C@@H]1CCc2c([nH]c3ccc(Cl)cc23)C1` are 134 µM, 74 µM and “Active”.
In test [1], `COC(=O)C1CCc2c([nH]c3ccc(Cl)cc23)C1` (racemic) gave an IC50 above 1000 µM.
Take `NC(=O)Cn1c2c(c3cc(Br)ccc31)CC[C@@H](C(=O)O)C2`: in test [1], half-maximal inhibition (IC50) was put at 246 µM and the affinity corresponds to a Ki of 137 µM. In addition, the inhibition entry in test [4] was “Active”.
In test [1], `O=C(O)[C@H]1CCc2c([nH]c3ccc(Cl)cc23)C1` returned an IC50 of 442 µM and a Ki of 246 µM.
In the same order, the values of `NC(=O)Cn1c2c(c3cc(Br)ccc31)CC[C@H](C(=O)O)C2` are 285 µM and 158 µM.
Regarding `NC(=O)CN1CCC(NC(=O)Cn2c3c(c4cc(Br)ccc42)CC[C@@H](C(=O)O)C3)CC1`, in test [1], the IC50 turned out to be 307 µM and affinity was put at a Ki of 171 µM.
As to `CCNC(=O)Cn1c2c(c3cc(Cl)ccc31)CC[C@@H](C(=O)O)C2`, in test [1], half-maximal inhibition (IC50) required 347 µM and the Ki was determined as 193 µM.
On to `O=C(O)[C@@H]1CCc2c([nH]c3ccc(F)cc23)C1`, for which, in test [1], inhibition was half-maximal at 817 µM (IC50) and the affinity corresponds to a Ki of 454 µM.
As to `O=C(Cn1c2c(c3cc(Br)ccc31)CC[C@@H](C(=O)O)C2)N[C@H](Cc1ccccc1)C(=O)O`, in test [1], the IC50 came to 30 µM and the Ki was determined as 17 µM. For the same compound, the Kd in test [2] is 13 µM. Besides, in test [3], the inhibition result was “Active”.

Broadly, the IC50 is the midpoint of a concentration-inhibition curve. The Ki is the dissociation constant of the complex between target and ligand, obtained from inhibition or displacement. A low value points to a stronger hold on the target. The term Kd denotes a measure of binding affinity in units of concentration.

The record behind these values is ChEMBL document CHEMBL3576851, “Bacterial Sliding Clamp Inhibitors that Mimic the Sequential Binding Mechanism of Endogenous Linear Motifs” (J Med Chem, 2015).
